Columns and labels:
TrkB = target: T1, TrkB (Homo sapiens, UniProt Q16620); test: TrkB dimerization assay (GST pull-down, transfected HEK293 cells); format: cell-based
T1 construct: expressed in transfected cells; host or cells: HEK293
Method: HEK293 cells transfected with GST-TrkB and HA-TrkA or TrkB were washed once in PBS, and lysed in 1 ml lysis buffer (50 mM Tris, pH 7.4, 150 mM NaCl, 1 mM EDTA, 0.5% Triton X-100, 1.5 mM Na3VO4, 50 mM NaF, 10 mM sodium pyrophosphate, 10 mM sodium β-glycerophosphate, 1 mM phenylmethylsulfonyl fluoride (PMSF), […], […] leupeptin, […] pepstatin A), and centrifuged for 10 minutes at 14,000×g at 4° C. The supernatant was then transferred to a fresh tube and transfected TrkB receptor was pulled down with glutathione beads. The coprecipitated proteins were resolved on SDS-PAGE. The samples were transferred to a nitrocellular membrane, and immunoblotting analysis was performed with a variety of antibodies.
BDNF is known to bind the TrkB receptor and provoke its dimerization (Barbacid, J. Neurobiol., 25:1386-1403, 1994; Klein et al, Cell, 66:395-403, 1991). To explore whether an identified active compound triggers TrkB receptor dimerization, HEK293 cells are cotransfected with GST-TrkB and HA-TrkB or HA-TrkA. The cells then are treated with BDNF or an identified active compound (0.5 μM) for 30 minutes. […]

hippocampal neurons [1] = test: Glutamate-triggered apoptosis in hippocampal neurons (MR(DEVD)2 / condensed nuclei); format: cell-based; settings: 0.5 μM preincubated 30 min, then 50 μM glutamate 16 h
Method: To create and test reporter cell lines. In order to identify small molecules that mimic BDNF and activate TrkB, TrkB stably transfected murine cell lines are created. The T48 and T62 cell lines are created by transfecting basal forebrain SN56 cells, which express negligible TrkB, with a TrkB expression construct. To test expression of TrkB, the cells are treated with BDNF, which is predicted to result in strong phosphorylation of Trk-490 and Akt activation in comparison to the TrkA NTR stably expressing T17 cell line indicating expression of TrkB. To test resistance to apoptosis, the SN56 cells and the T48 cell line are either untreated or treated with BDNF, and then are subjected to an apoptotic assay. The apoptotic assay involves treating the cells with 0.75 μM Staurosporine for 9 hours, and 1 hour before completing the experiment, the cells are treated with 10 μM MR (DEVD)2. The cells then are fixed with 4% paraformaldehyde for 15 minutes, washed with phosphate buffered saline (PBS), and incubated with Hoechst 33342 for 10 minutes. Cover slides are washed with PBS, mounted, and then the cells are examined using a fluorescent microscope to see which cells turn red upon caspase cleavage.
To compare the apoptosis inhibitory activity of identified active compounds, the compounds are preincubated with SN56 and T48 cells, and subsequently are subjected to the fluorescent apoptotic assay as described above. To examine whether these identified active compounds promote neuronal survival, hippocampal neurons are prepared and the cultures are pretreated with the identified active compounds for 30 minutes, followed by treatment with 50 μM glutamate for 16 hours.
Using a cell-based screen as described above in Example 1 (based on the anti-apoptotic action of TrkB signaling) and the chemical library from the Spectrum Collection (described above), 66 positive hits were generated, four of which were gedunin derivatives. […] In this assay, neurons with both cleaved caspase (MR (DEVD)2 red cells) and condensed nuclei (DAPI staining) were counted as apoptotic cells. […]

hippocampal neurons [2] = test: Oxygen-glucose deprivation (OGD) apoptosis in hippocampal neurons; format: cell-based; settings: apoptotic ratio compared to BDNF and DMSO
[3] = target: TrkB intra-cellular domain (ICD) (Homo sapiens, UniProt Q16620); test: [3H]-deoxygedunin ligand binding assay, TrkB ICD; settings: increasing concentrations of radioligand
Sequence of TrkB intra-cellular domain (ICD) (Q16620 455-822 limits assumed): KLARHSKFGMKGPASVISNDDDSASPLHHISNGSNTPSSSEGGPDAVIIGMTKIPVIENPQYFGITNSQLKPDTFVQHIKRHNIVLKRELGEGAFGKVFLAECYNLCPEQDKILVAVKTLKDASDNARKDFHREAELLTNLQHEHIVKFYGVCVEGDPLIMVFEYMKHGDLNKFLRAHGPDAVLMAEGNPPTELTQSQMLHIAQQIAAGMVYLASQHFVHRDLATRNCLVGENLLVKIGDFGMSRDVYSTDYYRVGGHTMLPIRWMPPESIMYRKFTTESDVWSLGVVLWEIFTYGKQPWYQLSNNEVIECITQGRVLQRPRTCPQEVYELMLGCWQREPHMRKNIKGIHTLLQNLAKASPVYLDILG
Method: (§1) Purified TrkB ECD or ICD proteins (10 μg/each) were incubated with different [^3H-deoxygedunin] in 1 ml binding buffer (0.05 M Na/K phosphate buffer (pH 7.1), 200 mM NaCl) (1 nM [^3H]deoxygedunin˜82300 cpm) at 4° C. for 10 minutes. After incubation, the reaction mixture was loaded on filter paper and washed with 3×5 ml Tris buffer (100 mM Tris, pH 7.1). The dried filter paper was put into a small vial and subjected to liquid scintillation counter analysis. The value of the dissociation constant and the number of sites were obtained from Scatchard plots by using the equation r/[L]free=n/Kd−r/Kd, where r is the ratio of the concentration of bound ligand to the total protein concentration and n is the number of binding sites.
To determine whether an identified active compound physically and directly binds to the TrkB receptor, in vitro binding assays can be conducted with purified TrkB extracellular domain (ECD) and intracellular domain (ICD) recombinant proteins. Purified TrkB ECD and ICD (10 μg of each) are incubated with different concentrations of ^3H-labeled identified active compound in 1 ml of binding buffer (0.05M Na/K phosphate buffer, pH 7.1, 200 mM NaCl) at 4° C. for 10 minutes. After the incubation, the reaction mixture is loaded on filter paper. […]

TrkA = TrkA (Homo sapiens, UniProt P04629); test: [3H]-deoxygedunin ligand binding assay, TrkA
Sequence of TrkA (P04629 33-796, species assumed): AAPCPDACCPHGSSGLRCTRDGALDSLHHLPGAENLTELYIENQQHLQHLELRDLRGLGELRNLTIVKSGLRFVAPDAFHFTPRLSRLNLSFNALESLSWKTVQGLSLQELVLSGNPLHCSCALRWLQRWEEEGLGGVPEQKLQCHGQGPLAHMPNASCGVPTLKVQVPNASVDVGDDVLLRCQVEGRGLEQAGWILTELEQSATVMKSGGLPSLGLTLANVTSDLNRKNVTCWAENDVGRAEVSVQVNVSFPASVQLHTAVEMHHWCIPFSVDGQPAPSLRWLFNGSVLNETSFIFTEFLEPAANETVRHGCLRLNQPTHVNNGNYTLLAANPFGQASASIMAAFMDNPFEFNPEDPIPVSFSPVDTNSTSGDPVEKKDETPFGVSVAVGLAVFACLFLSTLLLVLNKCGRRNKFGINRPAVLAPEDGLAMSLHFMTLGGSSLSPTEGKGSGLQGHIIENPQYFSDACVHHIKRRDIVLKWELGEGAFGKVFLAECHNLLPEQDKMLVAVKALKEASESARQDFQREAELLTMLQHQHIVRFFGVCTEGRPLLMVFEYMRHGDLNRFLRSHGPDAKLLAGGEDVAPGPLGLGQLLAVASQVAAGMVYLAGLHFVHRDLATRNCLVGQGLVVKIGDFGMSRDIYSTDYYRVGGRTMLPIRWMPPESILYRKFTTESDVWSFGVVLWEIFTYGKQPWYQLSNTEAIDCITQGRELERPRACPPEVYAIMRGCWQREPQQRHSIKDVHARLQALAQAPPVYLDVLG

[4] = target: TrkB extra-cellular domain (ECD) (Homo sapiens, UniProt Q16620); test: [3H]-deoxygedunin ligand binding assay, TrkB ECD (Scatchard plot); settings: increasing concentrations of radioligand
Sequence of TrkB extra-cellular domain (ECD) (Q16620 32-430 limits assumed): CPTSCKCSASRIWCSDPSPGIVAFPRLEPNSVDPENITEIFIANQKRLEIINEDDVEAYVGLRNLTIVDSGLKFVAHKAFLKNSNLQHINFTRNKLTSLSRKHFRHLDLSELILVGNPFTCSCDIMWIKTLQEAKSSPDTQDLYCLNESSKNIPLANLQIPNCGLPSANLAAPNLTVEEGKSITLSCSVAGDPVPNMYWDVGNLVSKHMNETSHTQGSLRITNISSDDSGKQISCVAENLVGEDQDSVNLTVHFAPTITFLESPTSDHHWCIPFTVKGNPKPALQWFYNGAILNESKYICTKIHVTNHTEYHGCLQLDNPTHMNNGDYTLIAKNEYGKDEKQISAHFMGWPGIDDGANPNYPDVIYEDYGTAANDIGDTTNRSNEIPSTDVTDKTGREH
Method: as §1
To determine whether an identified active compound physically and directly binds to the TrkB receptor, in vitro binding assays can be conducted with purified TrkB extracellular domain (ECD) and intracellular domain (ICD) recombinant proteins. Purified TrkB ECD and ICD (10 μg of each) are incubated with different concentrations of ^3H-labeled identified active compound in 1 ml of binding buffer (0.05M Na/K phosphate buffer, pH 7.1, 200 mM NaCl) at 4° C. for 10 minutes. After the incubation, the reaction mixture is loaded on filter paper. The mixture is washed three times with Tris buffer (100 mM Tris, pH 7.1), and the dried filter paper is put into a small vial and subjected to liquid scintillation counter analysis. […] The value of the dissociate constant and the number of sites will then be obtained from Scatchard plots using the equation r/[L]free=n/Kd−r/Kd, where r is the ratio of the concentration of bound ligand to the total protein concentration and n is the number of binding sites.
To determine whether deoxygedunin binds the intra-cellular domain (ICD) or extra-cellular domain (ECD) of the TrkB receptor, ligand binding assays with [^3H]-deoxygedunin were performed. […] The coprecipitated HA-TrkB was also prominently tyrosine phosphorylated (see FIG. 14, 3rd panel).

T1 sequence (Q16620 32-822, species assumed): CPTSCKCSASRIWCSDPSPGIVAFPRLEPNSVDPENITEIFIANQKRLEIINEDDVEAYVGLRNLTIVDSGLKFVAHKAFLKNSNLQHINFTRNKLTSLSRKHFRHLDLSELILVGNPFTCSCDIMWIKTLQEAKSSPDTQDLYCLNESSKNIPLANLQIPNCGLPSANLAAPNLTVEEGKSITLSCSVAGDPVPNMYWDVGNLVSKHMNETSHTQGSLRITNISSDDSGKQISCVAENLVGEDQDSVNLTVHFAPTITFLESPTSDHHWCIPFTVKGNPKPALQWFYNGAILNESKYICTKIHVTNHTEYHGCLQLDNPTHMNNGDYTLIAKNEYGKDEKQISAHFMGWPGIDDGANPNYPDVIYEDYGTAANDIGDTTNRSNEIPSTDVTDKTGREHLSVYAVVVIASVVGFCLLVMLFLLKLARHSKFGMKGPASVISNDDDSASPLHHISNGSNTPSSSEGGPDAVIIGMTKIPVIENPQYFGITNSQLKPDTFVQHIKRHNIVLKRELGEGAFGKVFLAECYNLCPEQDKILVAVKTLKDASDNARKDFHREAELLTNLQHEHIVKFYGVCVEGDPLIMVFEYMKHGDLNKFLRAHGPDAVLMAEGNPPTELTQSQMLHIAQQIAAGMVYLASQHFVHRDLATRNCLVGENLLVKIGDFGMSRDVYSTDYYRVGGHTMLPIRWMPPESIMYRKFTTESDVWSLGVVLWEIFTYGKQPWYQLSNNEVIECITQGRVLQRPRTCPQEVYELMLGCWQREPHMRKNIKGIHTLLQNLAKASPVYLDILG
T1 sequence (Q16620 32-822, species assumed): as above

| TrkB dimerization (TrkB) | Compound | protective effect (apoptosis inhibitory activity) (hippocampal neurons [1]) | protective effects on hippocampal neurons under OGD (hippocampal neurons [2]) | binding to TrkB ICD [3] | binding to TrkA (TrkA) | binding to TrkB ECD [4] |
| --- | --- | --- | --- | --- | --- | --- |
| notably promoted TrkB dimerization | CC(=O)O[C@@H]1CC2C(C)(C)[C@H](O)CC[C@]2(C)C2CC[C@@]3(C)[C@H](c4ccoc4)OC(=O)C4OC43[C@@]21C (stereo partly drawn) [alpha-dihydrogedunol (epoxy ring down), alphadihydrogedunol (epoxy ring down)] | protective effect | potent protective effects | – | – | – |
| – | 32-[^3H]3-deoxygedunin [[^3H]-deoxygedunin] | – | – | not the intra-cellular domain (ICD) | did not bind to TrkA | progressively bound |
